According to patent publication US7557092B2, “Purinergic modulation of smell” (University of Utah Research Foundation, priority 2002, dated 2009):

Legend:
[1] = system: cultured mouse olfactory receptor neurons (ORNs); experiment: nystatin perforated-patch voltage-clamp of cultured ORNs; format: cell-based; conditions: 10 μM ATP
Procedure: The physiological activation of purinergic receptors in cultured mouse ORNs (Vargas and Lucero, 1999a) were examined using both electrophysiology (Danaceau and Lucero, 1998)(FIG. 2A), and calcium imaging (FIG. 2B-E). ATP (10 μM) evoked inward currents in 39% (27/69 ORNs) of the perforated-patched mouse ORNs during brief (1-10 s) applications (FIG. 2A). […] Rapid activation of inward current that closely followed the ATP stimulus profile with little or no desensitization was also observed, indicating involvement of non-desensitizing ionotropic P2X receptors [P2X4 and/or P2X7] (Ralevic and Burnstock, 1998)(FIG. 2A, cell 2) (14/27 cells; latency=81±15 ms, Imax=−235±74 pA). These electrophysiological results support the immunohistochemical evidence of expression of both purinergic receptor subtypes in ORNs.
(§1) To prepare olfactory epithelium slices, neonatal mice (postnatal day 0-6) were quickly decapitated, and the skin and lower jaw were removed. Tissue was mounted in ice cold Ringers onto a vibratome-cutting block and 300 μm slices were made. Primary cultures of mouse ORNs were made using the same protocol and culture conditions as described for rat olfactory receptor neurons (Vargas and Lucero, 1999a). Briefly, tissue was placed in divalent cation-free Ringers containing 10 mg/ml bovine serum albumin, 1 mg/ml deoxyribonuclease II and 44 U/ml dispase, incubated at 37° C. for 45 min. The tissue was washed, triturated, and filtered through a […] mesh and […] cells were plated onto concanavalin A-coated coverslips and allowed to settle for 20 min. An additional 1.5 ml of culture medium was added (DMEM supplemented with […] ascorbic acid, 1X insulin-transferrin-seleniumX (GIBCO BRL), 2 mM glutamine, 100 U/ml penicillin G and […] streptomycin).
The nystatin perforated-patch technique (Horn and Marty, 1988) was used to examine cells under voltage-clamp. Electrodes (2-5 MΩ) were filled with TMA-oxide internal solution (in mM: 62.5 TMA oxide, 62.5 KH2PO4, 15 KCl, 5 MgCl2, 11 EGTA, 10 HEPES, 1 glutathione, 5 TEA, 0.03% pluronic acid F-127, 0.3% DMSO, […] nystatin, pH 7.2, 330 mOsm).

[2] = system: sustentacular cells in mouse olfactory epithelium slices; experiment: confocal calcium imaging of fluo-4 AM loaded olfactory epithelium slices, sustentacular cells; format: cell-based; conditions: 10 μM agonist superfused onto slice
From the text: To study the effects of ATP on odor responses, acutely prepared slices of mouse olfactory epithelium were used. Confocal imaging of fluo-4 AM-loaded olfactory epithelium slices allows simultaneous recording from identified structures within the olfactory epithelium, i.e., both ORNs and sustentacular cells. […] The difference in robustness can be due to poor access to the ATP stimulus: odorant receptors are on the cilia of the ORNs, which extend beyond the outer edge of the olfactory epithelium, whereas purinergic receptors are located deeper within the olfactory epithelium. […] The latency of activation for the ATP-evoked calcium transient was shorter in the ORN (FIG. 3B2, solid up arrowhead) than in sustentacular cells (FIG. 3B3, open down arrowhead). Collectively, this was consistent with ORNs expressing the faster P2X receptors, and the sustentacular cells expressing the slower G-protein coupled P2Y receptors.
as §1
[Ca^2+]i was determined using confocal imaging of fluo-4 AM (18 μM; Molecular Probes) loaded cells and slices. Cells or slices were placed in a laminar flow chamber (Warner Instruments) and perfused continuously with Ringers solution at a flow rate of 1.5-2.0 ml/min. Ringers contained (mM): 140 NaCl, 5 KCl, 1 MgCl2, 2 CaCl2, 10 HEPES, 10 glucose, […] and 400 nM tetrodotoxin. Test solutions were applied using bath exchange and a small volume loop injector (200 μl). A Zeiss LSM 510 confocal laser scanning system was used for data collection and analysis. Time series experiments were performed collecting 1400×700 pixel images at 0.2-0.4 Hz. The fluorometric signals obtained are expressed as relative fluorescence change, ΔF/F═(F−F0)/F0, where F0 is the basal fluorescence level. Increases in F greater than 10% above baseline noise were considered responses.

[3] = system: P2X and P2Y purinergic receptors; conditions: cited from earlier work
[4] = cells with long latent period (P2Y-like), 13/27 cells
[5] = rapidly activating cells (P2X-like), 14/27 cells

Compound: Nc1ncnc2c1ncn2[C@@H]1O[C@H](COP(=O)(O)OP(=O)(O)OP(=O)(O)O)[C@@H](O)[C@H]1O [ATP, Adenosine 5′-triphosphate]
- ORNs in which ATP evoked inward currents ([1]; brief (1-10 s) applications, perforated-patched mouse ORNs, 27/69 ORNs): 39%
- Imax [1, 4]: −29±8 pA
- latency of inward current [1, 4]: 1140 ± 236 ms
- Imax [1, 5]: −235±74 pA
- latency of inward current [1, 5]: 81 ± 15 ms
- agonist-evoked calcium transients in sustentacular cells [2]: evoked calcium transients
- concentrations that activate P2X and P2Y purinergic receptors [3]: 0.1 to 10 µM
